Structures are written as SMILES.

Data on 7 compounds can be found in patent US8318949B2, “Organic compounds” (Novartis AG, priority 2008, dated 2012).

For data set [1], the target named is T1, stearoyl-CoA desaturase (SCD1) (Mus musculus, UniProt P13516).
T1 construct: Male ICR outbread mice, on a high-carbohydrate, low fat diet; from tissue; host or cells: liver microsomes of male ICR mice on a high-carbohydrate, low fat diet
T1 sequence (P13516 1-355): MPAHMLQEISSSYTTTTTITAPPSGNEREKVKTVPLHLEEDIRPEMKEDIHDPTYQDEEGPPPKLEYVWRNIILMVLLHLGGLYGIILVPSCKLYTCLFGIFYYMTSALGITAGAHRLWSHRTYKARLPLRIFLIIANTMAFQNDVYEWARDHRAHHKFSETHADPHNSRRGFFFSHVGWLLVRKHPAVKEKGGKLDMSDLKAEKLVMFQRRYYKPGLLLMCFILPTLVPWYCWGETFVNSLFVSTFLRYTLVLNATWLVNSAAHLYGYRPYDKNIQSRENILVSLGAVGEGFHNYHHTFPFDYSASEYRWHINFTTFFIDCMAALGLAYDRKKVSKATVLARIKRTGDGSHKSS
Put plainly: Stearoyl-CoA desaturase inhibition, mouse liver microsomes (release of 3H2O from [9,10-3H]stearoyl-CoA). It is filed as biochemical. Particulars: 15 min incubation, 25° C., read-out: Microsomal IC50. The source says: The identification of compounds of the invention as SCD inhibitors was readily accomplished using the SCD enzyme and microsomal assay procedure described in Shanklin J. and Summerville C., Proc. Natl. Acad. Sci. USA (1991), Vol. 88, pp. 2510-2514.
Measuring Stearoyl-CoA Desaturase Inhibition Activity of a Test Compound Using Mouse Liver Microsomes
The identification of compounds of the invention as SCD inhibitors was readily accomplished using the SCD microsomal assay procedure described in Shanklin J. and Summerville C., Proc. Natl. Acad. Sci. USA (1991), Vol. 88, pp. 2510-2514.
Male ICR outbread mice, on a high-carbohydrate, low fat diet, under light halothane (15% in mineral oil) anesthesia are sacrificed by exsanguination during periods of high enzyme activity. Livers are immediately rinsed with cold 0.9% NaCl solution, weighed and minced with scissors. All procedures are performed at 4° C. unless specified otherwise. Livers are homogenized in a solution (1/3 w/v) containing 0.25 M sucrose, 62 mM potassium phosphate buffer (pH 7.0), 0.15 M KCl, 15 mM N-acetyleysteine, 5 mM MgCl2, and 0.1 mM EDTA using 4 strokes of a Potter-Elvehjem tissue homogenizer. The homogenate is centrifuged at 10,400×g for 20 min to eliminate mitochondria and cellular debris. The supernatant is filtered through a 3-layer cheesecloth and centrifuged at 105,000×g for 60 min. The microsomal pellet is gently resuspended in the same homogenization solution with a small glass/teflon homogenizer and stored at −70° C. The absence of mitochondrial contamination is enzymatically assessed. The protein concentration is measured using bovine serum albumin as the standard.
Desaturase activity is measured as the release of ^3H2O from [9,10-^3H]stearoyl-CoA. Reactions per assay point conditions are as follows: 2 μL 1.5 mM stearoyl-CoA, 0.25 μL 1 mCi/mL ^3H stearoyl CoA, 10 μL 20 mM NADH, 36.75 μL 0.1 M PK buffer (K2HPO4/NaH2PO4, pH 7.2). The test compound or control solution is added in a 1 μL volume. Reactions are started by adding 50 μL of microsomes (1.25 mg/mL). The plates are mixed and after 15 min incubation on a heating block (25° C.), the reactions are stopped by the addition of 10 μL 60% PCA. An aliquot of 100 μL is then transferred to a filter plate pretreated with charcoal and the plate centrifuged at 4000 rpm for 1 minute. The flow through containing the ^3H2O released by the SCD1 desaturation reaction is added to scintillation fluid and the radioactivity measured in a Packard TopCount. The data is analysed to identify the IC50 for test compounds and reference compounds.
The activity was defined in terms of % SCD enzyme activity remaining at the desired concentration of the test compound or as the IC50 concentration. The IC50 (affinity) of the example compounds toward the stearoyl-CoA desaturase is comprised between around […] and 0.0001 μM or between around 5 μM and 0.0001 μM or between around 1 μM and 0.0001 μM.
(Liver microsomes are vesicles of endoplasmic reticulum, rich in cytochrome P450 enzymes.)

The term IC50 denotes the concentration that inhibits the measured activity by half. For orientation: melting point means the temperature, or range, at which the solid turns liquid. For the compound `Cc1nc(N2CCN(Cc3cccc(C(F)(F)F)c3)C2=O)sc1-c1cc[nH]n1` [Example 17.2, 1-(4-methyl-5-(1H-pyrazol-3-yl)thiazol-2-yl)-3-(3-(trifluoromethyl)benzyl)imidazolidin-2-one], the melting point fell in the range of 209 to 214 °C. Moreover, the IC50 in data set [1] stood at 0.186 µM. As for `Cc1nc(-n2cnn(Cc3ccc(OC(F)(F)F)cc3)c2=O)sc1C(=O)NCc1ccccn1` [Example 20-54, 4-methyl-2-(5-oxo-1-(4-(trifluoromethoxy)-benzyl)-1H-1,2,4-triazol-4(5H)-yl)-N-(pyridin-2-ylmethyl)-thiazole-5-carboxamide], in data set [1], the IC50 came out at 0.02 µM.

In the case of `Cc1nc(-n2cnn(C(C)c3ccccc3)c2=O)sc1C(=O)NCc1cncs1` (stereo not drawn) [Example 20-10, 4-methyl-2-(5-oxo-1-(1-phenylethyl)-1H-1,2,4-triazol-4(5H)-yl)-N-(thiazol-5-ylmethyl)thiazole-5-carboxamide], in data set [1], the IC50 stood at 0.008 µM.

For `Cc1nc(N2C[C@@H](C)N(Cc3ccc(F)cc3)C2=O)sc1C(=O)NCc1cccnc1` [Example 2.7, (R)-2-(3-(4-Fluorobenzyl)-4-methyl-2-oxoimidazolidin-1-yl)-4-methyl-N-(pyridin-3-ylmethyl)thiazole-5-carboxamide], the melting point lay in the range of 135 to 136 °C. For the same compound, the IC50 in data set [1] amounted to 0.036 µM. Take `Cc1nc(N2CCN(CC(C)C)C2=O)sc1C(=O)NCc1cccnc1` [Example 12.18, 2-(3-isobutyl-2-oxoimidazolidin-1-yl)-4-methyl-N-(pyridin-3-ylmethyl)thiazole-5-carboxamide]: the IC50 in data set [1] stood at 0.156 µM. In the case of `Cc1nc(N2CCN(C(C)c3ccccc3)C2=O)sc1C(=O)NCc1cncs1` (stereo not drawn) [Example 20-26, 4-methyl-2-(2-oxo-3-(1-phenylethyl)-imidazolidin-1-yl)-N-(thiazol-5-yl-methyl)thiazole-5-carboxamide], the IC50 in data set [1] amounted to 0.011 µM. `Cc1nc(N2CCN(Cc3ccc(S(C)(=O)=O)cc3)C2=O)sc1C(N)=O` [Example 20-133, 4-methyl-2-(3-(4-(methylsulfonyl)benzyl)-2-oxoimidazolidin-1-yl)thiazole-5-carboxamide]: the IC50 in data set [1] turned out to be 0.527 µM.
